From patent US11945822B2, “Pyrazolo-triazine and/or pyrazolo-pxrimidine derivatives as selective inhibitor of cyclin dependent kinase” (QURIENT CO., LTD., priority 2018, dated 2024) come the findings set out here.

Assay [1] addresses T1, CDK1/Cyclin B (Homo sapiens, UniProt P06493).
T1 construct: purchased Invitrogen PR4768C
The assay is described as follows: Enzymatic assay for CDK1 (FRET based LANCE Ultra kinase assay). It is filed as biochemical. Particulars: read-out: CDK1 enzymatic activity (IC50 range). The procedure, abridged: (§1)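 TR-FRET (LANCE Ultra) kinase assay at ATP Km, ULight-MBP peptide substrate (68 nM), 8-dose 4-fold compound series in DMSO. Enzymes: […]; 60 min at 23° C., stopped with EDTA plus Eu-anti-phospho-MBP antibody, read 665/615 nm after 60 min.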

For assay [2], the target named is T2, CDK2/Cyclin A (Homo sapiens, UniProt P24941).
T2 construct: purchased Invitrogen PV6290
The assay is described as follows: Enzymatic assay for CDK2 (FRET based LANCE Ultra kinase assay). Conditions: read-out: CDK2 enzymatic activity (IC50 range). The assay is classed as biochemical. The procedure, abridged: as §1
(In general: In TR-FRET formats the signal depends on donor and acceptor labels being close together.)

The target in assay [3] is T3, CDK5/p25 (Homo sapiens, UniProt Q00535).
T3 construct: purchased Invitrogen PR8543B
The assay is described as follows: Enzymatic assay for CDK5 (FRET based LANCE Ultra kinase assay). It is filed as biochemical. Conditions: read-out: CDK5 enzymatic activity (IC50 range). The procedure, abridged: as §1

The target of assay [4] is T4, CDK7/Cyclin H/MNAT1 (Homo sapiens, UniProt P50613).
T4 construct: purchased Invitrogen PR6749B
The assay is described as follows: Enzymatic assay for CDK7 (FRET based LANCE Ultra kinase assay). Particulars: for IC50: read-out: CDK7 enzymatic activity (IC50 range). It is filed as biochemical. The method in brief:
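Inhibition was measured at Km ATP by time-resolved FRET between a Eu anti-phospho antibody and a phosphorylated ULight peptide. The enzyme was the purified CDK7/cyclin complex, and data were curve-fitted.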

The test system of assay [5] is H460. The assay is described as follows: Cellular H460 viability assay (CellTiter-Glo, 72 hours). The assay is classed as cell-based. Conditions: Homo sapiens, NCI-H460. The procedure, abridged:
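Luminescent ATP read-out (CellTiter-Glo) after 72 h compound exposure at 37 °C/5% CO2; duplicate wells; vehicle control DMSO <0.1% final; seeding density set per cell line.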
(In general: Cellular ATP, detected with luciferase, serves as a proxy for viable cell number.)

Assay [6] concerns MOLT-4. The assay is described as follows: Cellular MOLT-4 viability assay (CellTiter-Glo, 72 hours). The assay is classed as cell-based. Particulars: Homo sapiens, MOLT4 viability assay. The procedure: All cell lines were routinely tested for mycoplasma.
The effect of the CDK7 inhibitor to inhibit the growth of target cancer cells was evaluated through the 72 hours time period of viability assay. Briefly, the candidate cell line ware plated in 96 well plate at the following density of cells respectively. […] DMSO solvent without compound served as a control and final DMSO concentration less than 0.1%. After 72 hours of incubation at 37° C., 5% CO2 incubator, cells were analyzed for the viability using the CellTiter-Glo Luminescent Cell Viability Assay (Promega, Cat #G7570). All viability assays were performed in duplicate and Luminescence was read using an Envision (Perkin Elmer, USA). Data was analyzed using XLfit software.

T3 sequence (Q00535 whole entry): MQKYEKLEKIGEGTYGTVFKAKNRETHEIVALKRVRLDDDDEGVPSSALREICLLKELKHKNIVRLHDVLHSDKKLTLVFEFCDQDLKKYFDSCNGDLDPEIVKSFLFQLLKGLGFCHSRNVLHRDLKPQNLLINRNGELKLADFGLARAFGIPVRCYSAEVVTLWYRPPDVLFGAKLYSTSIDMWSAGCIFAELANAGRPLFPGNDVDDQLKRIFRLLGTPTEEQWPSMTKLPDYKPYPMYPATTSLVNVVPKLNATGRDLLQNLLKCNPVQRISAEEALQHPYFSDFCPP
T3 sequence (Q15078 99-307 partner limits assumed): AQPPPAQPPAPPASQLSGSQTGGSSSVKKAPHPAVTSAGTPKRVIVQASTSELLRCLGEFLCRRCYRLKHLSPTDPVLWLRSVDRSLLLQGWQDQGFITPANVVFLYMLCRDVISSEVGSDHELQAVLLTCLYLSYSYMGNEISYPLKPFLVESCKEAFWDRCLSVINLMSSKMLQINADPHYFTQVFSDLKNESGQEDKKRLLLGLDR
T4 sequence (P50613 whole entry): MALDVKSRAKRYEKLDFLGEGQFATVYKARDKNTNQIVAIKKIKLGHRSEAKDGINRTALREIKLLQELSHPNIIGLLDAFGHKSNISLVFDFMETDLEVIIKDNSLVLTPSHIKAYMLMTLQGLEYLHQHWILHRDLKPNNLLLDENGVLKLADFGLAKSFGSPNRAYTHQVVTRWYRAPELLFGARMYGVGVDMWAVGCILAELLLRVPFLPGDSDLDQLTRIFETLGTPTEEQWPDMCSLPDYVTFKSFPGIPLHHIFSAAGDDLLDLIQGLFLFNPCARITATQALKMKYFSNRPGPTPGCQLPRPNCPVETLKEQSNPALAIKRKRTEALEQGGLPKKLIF
T4 sequence (P51946 whole entry partner): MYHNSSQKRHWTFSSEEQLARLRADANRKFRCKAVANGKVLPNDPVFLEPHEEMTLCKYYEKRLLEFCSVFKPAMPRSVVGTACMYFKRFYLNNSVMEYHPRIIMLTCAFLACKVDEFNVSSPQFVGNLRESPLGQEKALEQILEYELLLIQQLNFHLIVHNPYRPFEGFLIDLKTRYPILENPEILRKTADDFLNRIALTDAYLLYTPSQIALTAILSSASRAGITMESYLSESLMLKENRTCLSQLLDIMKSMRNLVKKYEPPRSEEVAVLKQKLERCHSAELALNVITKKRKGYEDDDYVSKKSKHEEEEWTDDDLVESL
T4 sequence (P51948 whole entry partner): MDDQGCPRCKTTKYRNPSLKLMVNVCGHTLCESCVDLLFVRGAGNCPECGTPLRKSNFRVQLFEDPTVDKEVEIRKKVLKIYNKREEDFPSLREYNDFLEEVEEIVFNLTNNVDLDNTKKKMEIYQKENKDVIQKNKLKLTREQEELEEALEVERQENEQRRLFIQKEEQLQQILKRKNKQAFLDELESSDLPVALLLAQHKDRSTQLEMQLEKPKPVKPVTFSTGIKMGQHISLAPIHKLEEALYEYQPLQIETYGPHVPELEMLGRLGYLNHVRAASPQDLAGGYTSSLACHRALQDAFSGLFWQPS
T1 sequence (P06493 whole entry): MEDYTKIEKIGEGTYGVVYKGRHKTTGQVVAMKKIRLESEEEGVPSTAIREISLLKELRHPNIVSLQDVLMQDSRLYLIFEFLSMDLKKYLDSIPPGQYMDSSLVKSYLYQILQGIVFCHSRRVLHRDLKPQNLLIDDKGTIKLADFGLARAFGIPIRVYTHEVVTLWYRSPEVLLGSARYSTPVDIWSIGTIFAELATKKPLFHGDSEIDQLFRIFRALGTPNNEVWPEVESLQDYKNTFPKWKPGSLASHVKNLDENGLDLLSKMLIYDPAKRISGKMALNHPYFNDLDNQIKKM
T1 sequence (P14635 whole entry partner): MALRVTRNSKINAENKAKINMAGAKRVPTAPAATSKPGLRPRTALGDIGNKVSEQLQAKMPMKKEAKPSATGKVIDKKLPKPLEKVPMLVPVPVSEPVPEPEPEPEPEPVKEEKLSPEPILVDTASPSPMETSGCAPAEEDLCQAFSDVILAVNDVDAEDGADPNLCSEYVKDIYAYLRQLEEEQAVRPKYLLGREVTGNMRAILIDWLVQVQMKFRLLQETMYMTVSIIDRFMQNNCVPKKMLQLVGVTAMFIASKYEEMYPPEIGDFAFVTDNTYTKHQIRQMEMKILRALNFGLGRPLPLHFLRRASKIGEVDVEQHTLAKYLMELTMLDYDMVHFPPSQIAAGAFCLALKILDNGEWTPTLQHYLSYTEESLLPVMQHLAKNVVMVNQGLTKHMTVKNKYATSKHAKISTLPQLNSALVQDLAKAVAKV

As usually defined, the IC50 is the concentration needed to halve the response being measured. In the case of `CC(C)c1cnn2c(NCc3ccccc3OCc3ccccc3)nc(N3CCC(N)CC3)nc12` [Compound 57], the IC50 in assay [1] is > 1 µM; in assay [2] it was > 1 µM; in assay [3], 0.1 to 1 µM; in assay [4] it was < 0.1 µM; in assay [5], 1 to 10 µM; in assay [6], 1 to 10 µM. In addition, the “CDK1/CDK7: Selectivity of CDK7 inhibition over CDK1 inhibition” value in assay [4] is on record as “A (A=greater than 200 fold)”. Also, in assay [4], the “CDK2/CDK7: Selectivity of CDK7 inhibition over CDK2 inhibition” value was “A (A=greater than 200 fold)”. The “CDK5/CDK7: Selectivity of CDK7 inhibition over CDK5 inhibition” value in assay [4] is on record as “B (B=less than 200 fold, but greater than 20 fold)”.
Regarding `CC(C)c1cnn2c(NCc3ccccc3-c3ccco3)nc(N3CCC(N)CC3)nc12` [Compound 45], the figures for the half-maximal inhibitory concentration (IC50) in assay [5] and in assay [6] were < 1 µM and 1 to 10 µM, respectively.
As to `CC(C)c1cnn2c(NCc3ccccc3-n3cccn3)nc(-c3ccc(Cl)c(OC4CCNCC4)c3)nc12` [Compound 173], the half-maximal inhibitory concentration (IC50) in assay [1] was > 1 µM; in assay [2] it was > 1 µM; in assay [3] it was 0.1 to 1 µM; in assay [4], < 0.1 µM; in assay [5] it was 1 to 10 µM; in assay [6] it was 1 to 10 µM. In addition, the “CDK1/CDK7: Selectivity of CDK7 inhibition over CDK1 inhibition” value in assay [4] was “A (A=greater than 200 fold)”. Besides, the “CDK2/CDK7: Selectivity of CDK7 inhibition over CDK2 inhibition” value in assay [4] is reported as “B (B=less than 200 fold, but greater than 20 fold)”. In addition, in assay [4], the “CDK5/CDK7: Selectivity of CDK7 inhibition over CDK5 inhibition” value is “B (B=less than 200 fold, but greater than 20 fold)”.
Turning to `CC(C)c1cnn2c(NCc3ccccc3-n3cccn3)nc(N3CCN(C)CC3)nc12` [Compound 3], the half-inhibitory concentration (IC50) is > 1 µM in assay [1]; > 1 µM in assay [2]; 0.1 to 1 µM in assay [3]; < 0.1 µM in assay [4]; 1 to 10 µM in assay [5]; > 10 µM in assay [6]. In assay [4], the “CDK1/CDK7: Selectivity of CDK7 inhibition over CDK1 inhibition” value was “A (A=greater than 200 fold)”. Besides, in assay [4], the “CDK2/CDK7: Selectivity of CDK7 inhibition over CDK2 inhibition” value is listed as “B (B=less than 200 fold, but greater than 20 fold)”. Besides, the “CDK5/CDK7: Selectivity of CDK7 inhibition over CDK5 inhibition” value in assay [4] is on record as “B (B=less than 200 fold, but greater than 20 fold)”.
Turning to `CCCc1ccccc1CNc1nc(N2CCC(N)CC2)nc2c(C(C)C)cnn12` [Compound 55], the half-inhibitory concentration (IC50) in assay [1] is 0.1 to 1 µM; in assay [2] it was 0.1 to 1 µM; in assay [3] it was 0.1 to 1 µM; in assay [4], < 0.1 µM; in assay [5], 1 to 10 µM; in assay [6], 1 to 10 µM. The “CDK1/CDK7: Selectivity of CDK7 inhibition over CDK1 inhibition” value in assay [4] was “B (B=less than 200 fold, but greater than 20 fold)”. For the same compound, the “CDK2/CDK7: Selectivity of CDK7 inhibition over CDK2 inhibition” value in assay [4] is “B (B=less than 200 fold, but greater than 20 fold)”. The “CDK5/CDK7: Selectivity of CDK7 inhibition over CDK5 inhibition” value in assay [4] is “C (C=less than 20 fold)”.
For `NC1CCN(c2nc(NCc3ccccc3-n3cccn3)n3ncc(C(F)(F)F)c3n2)CC1` [Compound 41], the half-inhibitory concentration (IC50) in assay [5] is < 1 µM; in assay [6] it was > 10 µM.
Turning to `Cc1ccc(-n2cccn2)cc1CNc1nc(N2CCC(N)CC2)nc2c(C(C)C)cnn12` [Compound 75], the IC50 in assay [1] was > 1 µM; in assay [2], > 1 µM; in assay [3], 0.1 to 1 µM; in assay [4], < 0.1 µM; in assay [5], 1 to 10 µM; in assay [6] it was 1 to 10 µM. In addition, the “CDK1/CDK7: Selectivity of CDK7 inhibition over CDK1 inhibition” value in assay [4] was “A (A=greater than 200 fold)”. Moreover, the “CDK2/CDK7: Selectivity of CDK7 inhibition over CDK2 inhibition” value in assay [4] is “B (B=less than 200 fold, but greater than 20 fold)”. In addition, the “CDK5/CDK7: Selectivity of CDK7 inhibition over CDK5 inhibition” value in assay [4] is given as “B (B=less than 200 fold, but greater than 20 fold)”.
Turning to `CC(C)c1cnn2c(NCc3cccc(NC(=O)c4cccc(NC(=O)CCCN(C)C)c4)c3)nc(N3CCC(N)CC3)nc12` [Compound 70], the half-maximal inhibitory concentration (IC50) is > 1 µM in assay [1]; 0.1 to 1 µM in assay [2]; 0.1 to 1 µM in assay [3]; < 0.1 µM in assay [4]; 1 to 10 µM in assay [5]; > 10 µM in assay [6]. The “CDK1/CDK7: Selectivity of CDK7 inhibition over CDK1 inhibition” value in assay [4] is given as “A (A=greater than 200 fold)”. The “CDK2/CDK7: Selectivity of CDK7 inhibition over CDK2 inhibition” value in assay [4] is “B (B=less than 200 fold, but greater than 20 fold)”. Moreover, the “CDK5/CDK7: Selectivity of CDK7 inhibition over CDK5 inhibition” value in assay [4] was “B (B=less than 200 fold, but greater than 20 fold)”.
As for `CC(C)c1cnn2c(NCc3ccccc3Oc3ccc4ccccc4n3)nc(N3CCC(N)CC3)nc12` [Compound 74], the half-maximal inhibitory concentration (IC50) in assay [1] is > 1 µM; in assay [2] it was > 1 µM; in assay [3], 0.1 to 1 µM; in assay [4], < 0.1 µM; in assay [5] it was 1 to 10 µM; in assay [6], > 10 µM. Besides, the “CDK1/CDK7: Selectivity of CDK7 inhibition over CDK1 inhibition” value in assay [4] was “B (B=less than 200 fold, but greater than 20 fold)”. Also, in assay [4], the “CDK2/CDK7: Selectivity of CDK7 inhibition over CDK2 inhibition” value is “B (B=less than 200 fold, but greater than 20 fold)”. Also, in assay [4], the “CDK5/CDK7: Selectivity of CDK7 inhibition over CDK5 inhibition” value was “B (B=less than 200 fold, but greater than 20 fold)”.
As for `CC(C)c1cnn2c(NCc3ncccc3-n3cccn3)nc(N3CCC(N)CC3)nc12` [Compound 5], the IC50 is 1 to 10 µM in assay [5] and > 10 µM in assay [6].
On the same counts, the results for `CC(C)c1cnn2c(NCc3ccccc3-n3ccc4ccccc43)nc(N3CCC(N)CC3)nc12` [Compound 68] are < 1 µM and 1 to 10 µM.
With `CC(C)c1cnn2c(NCc3ccncc3-n3cccn3)nc(N3CCC(N)CC3)nc12` [Compound 6], the concentration for half-maximal inhibition (IC50) in assay [5] is < 1 µM; in assay [6] it was > 10 µM.
With `CC(C)c1cnn2c(NCc3cccc4cccnc34)nc(N3CCC(N)CC3)nc12` [Compound 9], the half-maximal inhibitory concentration (IC50) was 0.1 to 1 µM in assay [1]; 0.1 to 1 µM in assay [2]; < 0.1 µM in assay [3]; < 0.1 µM in assay [4]; < 1 µM in assay [5]; 1 to 10 µM in assay [6]. Moreover, the “CDK1/CDK7: Selectivity of CDK7 inhibition over CDK1 inhibition” value in assay [4] is “B (B=less than 200 fold, but greater than 20 fold)”. The “CDK2/CDK7: Selectivity of CDK7 inhibition over CDK2 inhibition” value in assay [4] is on record as “B (B=less than 200 fold, but greater than 20 fold)”. For the same compound, in assay [4], the “CDK5/CDK7: Selectivity of CDK7 inhibition over CDK5 inhibition” value was “C (C=less than 20 fold)”.
With `CC(C)c1cnn2c(NCc3ccccc3Oc3ccc(NC(=O)CCCN(C)C)cc3)nc(N3CCC(N)CC3)nc12` [Compound 91], the 50% inhibitory concentration (IC50) in assay [1] was 0.1 to 1 µM; in assay [2] it was 0.1 to 1 µM; in assay [3], 0.1 to 1 µM; in assay [4], < 0.1 µM; in assay [6] it was 1 to 10 µM. The “CDK1/CDK7: Selectivity of CDK7 inhibition over CDK1 inhibition” value in assay [4] is “A (A=greater than 200 fold)”. Moreover, the “CDK2/CDK7: Selectivity of CDK7 inhibition over CDK2 inhibition” value in assay [4] is on record as “B (B=less than 200 fold, but greater than 20 fold)”. The “CDK5/CDK7: Selectivity of CDK7 inhibition over CDK5 inhibition” value in assay [4] is reported as “B (B=less than 200 fold, but greater than 20 fold)”.
With `CC(C)c1cnn2c(NCc3cccc(Oc4ccc(F)c(NC(=O)CCCN(C)C)c4)c3)nc(N3CCC(N)CC3)nc12` [Compound 93], the 50% inhibitory concentration (IC50) in assay [1] is > 1 µM; in assay [2], 0.1 to 1 µM; in assay [3], 0.1 to 1 µM; in assay [4] it was < 0.1 µM; in assay [6], 1 to 10 µM. Further, in assay [4], the “CDK1/CDK7: Selectivity of CDK7 inhibition over CDK1 inhibition” value was “A (A=greater than 200 fold)”. The “CDK2/CDK7: Selectivity of CDK7 inhibition over CDK2 inhibition” value in assay [4] is on record as “B (B=less than 200 fold, but greater than 20 fold)”. For the same compound, in assay [4], the “CDK5/CDK7: Selectivity of CDK7 inhibition over CDK5 inhibition” value is reported as “B (B=less than 200 fold, but greater than 20 fold)”.
In the case of `CN(C)c1cnn2c(NCc3ccccc3-n3cccn3)nc(N3CCC(N)CC3)nc12` [Compound 60], the half-maximal inhibitory concentration (IC50) in assay [5] is < 1 µM; in assay [6] it was > 10 µM.
